The text below walks through data of ChEMBL document CHEMBL1144687, “Pim2 inhibitors from the Papua New Guinean plant Cupaniopsis macropetala” (J Nat Prod, 2008).

Molecules are shown by their SMILES.

Broadly, the IC50 is the concentration that inhibits the measured activity by half.

In this experiment the target is Serine/threonine-protein kinase pim-2 (Homo sapiens, UniProt Q9P1W9). The experiment in a line: Inhibition of Pim2 kinase.
Serine/threonine-protein kinase pim-2, sequence (Q9P1W9 whole entry): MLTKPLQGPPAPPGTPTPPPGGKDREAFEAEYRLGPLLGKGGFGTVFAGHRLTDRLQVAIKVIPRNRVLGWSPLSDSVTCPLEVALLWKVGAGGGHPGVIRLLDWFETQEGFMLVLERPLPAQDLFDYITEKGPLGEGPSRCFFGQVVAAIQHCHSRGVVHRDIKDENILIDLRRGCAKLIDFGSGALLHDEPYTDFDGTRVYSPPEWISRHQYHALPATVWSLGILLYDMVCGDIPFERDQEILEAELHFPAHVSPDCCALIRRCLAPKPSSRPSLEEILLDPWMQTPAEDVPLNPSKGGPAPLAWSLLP

`NCCc1ccc(OC(=O)c2cc(O)c(O)c(O)c2)cc1` [GALLOYL TYRAMINE]: the IC50 was 161 µM.

In the case of `C[C@@H]1O[C@@H](Oc2c(-c3ccc(O)c(O)c3)oc3cc(O)cc(O)c3c2=O)[C@H](O)[C@H](O)[C@H]1O` [QUERCITRIN], it took 25 µM to reach half-maximal inhibition (IC50).
